# Measurements taken from publication PMC9939733 (The Journal of Biological Chemistry, 2023).
# Numbering of substitutions follows the chain as printed.
# Target: T1, R132H IDH1 (Homo sapiens, UniProt O75874, R132H)
# Assay: Absorbance assay (NADPH consumption), substrate turnover in the absence of 2OG
# Assay type: biochemical
# Design: made in house; host or cells: Escherichia coli BL21(DE3) pLyS
# Conditions: no 2OG; […] test compound, 0.03 μM R132H IDH1, 50 μM NADPH; 2OG = 100
# Procedure: (§1) Compounds were dispensed using a CyBio SDW-CW CyBi-Well Simultaneous Pipettor and assay started using a ThermoFisher Multidrop Combi reagent dispenser.
# (§2) Reactions were performed as technical quadruplicates.
# T1 sequence (O75874 whole entry R132H): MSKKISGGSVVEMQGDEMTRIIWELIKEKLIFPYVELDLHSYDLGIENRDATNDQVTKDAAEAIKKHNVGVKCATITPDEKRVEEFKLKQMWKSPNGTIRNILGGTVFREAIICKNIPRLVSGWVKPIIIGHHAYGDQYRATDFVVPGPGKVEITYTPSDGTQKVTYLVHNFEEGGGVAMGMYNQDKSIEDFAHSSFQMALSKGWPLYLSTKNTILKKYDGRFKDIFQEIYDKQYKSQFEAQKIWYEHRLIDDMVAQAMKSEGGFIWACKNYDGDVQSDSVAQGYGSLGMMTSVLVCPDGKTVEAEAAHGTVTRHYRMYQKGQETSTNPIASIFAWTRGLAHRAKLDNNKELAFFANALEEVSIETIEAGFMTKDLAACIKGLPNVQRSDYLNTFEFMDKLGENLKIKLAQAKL
row,Compound,activity [%] (%-substrate conversion after 20 min incubation)
1,succinyl CoA,< 10%
2,"CC(C(=O)O)C(C)C(=O)O (centres unmarked) [1,2-dimethylsuccinic acid]",< 10%
3,O=CC(=O)O [glyoxylic acid],< 10%
4,O=C(O)CC(=O)O [malonic acid],< 10%
5,O=C(O)CC(Cc1ccccc1)C(=O)O (racemic) [DL-benzylsuccinic acid],< 10%
6,O=C(O)CCC(O)C(=O)O (racemic) [DL-2-hydroglutaric acid],< 10%
7,CSCCC(=O)C(=O)O [4-methylthio-2-oxobutyric acid],< 10%
8,O=C(O)C(=O)C(=O)O [ketomalonic acid],< 10%
9,CC[C@H](C)C(=O)C(=O)O [α-ketoisoleucine],< 10%

# Target: T2, WT IDH1 (Homo sapiens, UniProt O75874)
# T2 construct: made in house; host or cells: Escherichia coli BL21(DE3) pLyS
# T2 sequence (O75874 whole entry): as the sequence (O75874 whole entry R132H) above, with H132R counted along it
# Assay: Absorbance assay, substrate activity in the absence of DL-isocitrate
# Assay type: biochemical
# Conditions: no DL-isocitrate; […] test compound, 75 μM NADP+, 2.0 nM WT IDH1; compared to DL-isocitrate
# Procedure: as §1, §2
row,Compound,activity [%] (%-substrate conversion after 20 min incubation)
1,succinyl CoA,< 10%
2,"CC(C(=O)O)C(C)C(=O)O (centres unmarked) [1,2-dimethylsuccinic acid]",< 10%
3,O=CC(=O)O [glyoxylic acid],< 10%
4,O=C(O)CC(=O)O [malonic acid],< 10%
5,O=C(O)CC(Cc1ccccc1)C(=O)O (racemic) [DL-benzylsuccinic acid],< 10%
6,O=C(O)C(=O)C(=O)O [ketomalonic acid],< 10%

# Target: T3, WT IDH2 (Homo sapiens, UniProt P48735)
# T3 construct: made in house; host or cells: Sf21 insect cells (cell pellets prepared at Evotec)
# T3 sequence (P48735 40-452): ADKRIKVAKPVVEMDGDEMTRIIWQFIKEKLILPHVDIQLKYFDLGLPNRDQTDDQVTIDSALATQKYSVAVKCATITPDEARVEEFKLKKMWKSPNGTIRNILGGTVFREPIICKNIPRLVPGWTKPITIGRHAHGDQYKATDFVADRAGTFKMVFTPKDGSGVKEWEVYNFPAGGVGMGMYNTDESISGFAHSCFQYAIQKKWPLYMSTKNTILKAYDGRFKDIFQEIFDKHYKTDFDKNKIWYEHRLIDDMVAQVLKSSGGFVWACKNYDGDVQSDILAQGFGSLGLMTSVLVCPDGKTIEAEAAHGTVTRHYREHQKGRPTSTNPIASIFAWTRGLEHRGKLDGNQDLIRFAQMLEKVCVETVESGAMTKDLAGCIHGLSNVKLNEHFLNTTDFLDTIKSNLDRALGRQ
# Assay: as above
# Assay type: biochemical
# Conditions: no DL-isocitrate; […] test compound, 75 μM NADP+, 2.0 nM WT IDH2; compared to DL-isocitrate
# Procedure: as §1, §2
row,Compound,activity [%] (%-substrate conversion after 20 min incubation)
1,succinyl CoA,< 10%
2,"CC(C(=O)O)C(C)C(=O)O (centres unmarked) [1,2-dimethylsuccinic acid]",< 10%
3,O=CC(=O)O [glyoxylic acid],< 10%
4,O=C(O)CC(=O)O [malonic acid],< 10%
5,O=C(O)CC(Cc1ccccc1)C(=O)O (racemic) [DL-benzylsuccinic acid],< 10%
6,O=C(O)C(=O)C(=O)O [ketomalonic acid],< 10%

# Target: T4, R140Q IDH2 (Homo sapiens, UniProt P48735, R140Q)
# T4 construct: made in house; host or cells: Sf21 insect cells (cell pellets prepared at Evotec)
# T4 sequence (P48735 40-452 R140Q): T3 sequence (P48735 40-452) with R101Q
# Assay: Absorbance assay, variant activity in the presence of equimolar 2OG (inhibition screen)
# Assay type: biochemical
# Conditions: 6.0 mM 2OG and 6.0 mM test compound, 0.03 μM R140Q IDH2, 50 μM NADPH
# Outline: (§3)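 Reactions were run as technical quadruplicates. Compounds were dispensed with a simultaneous pipettor, and each assay was started by adding reagent from a bulk dispenser.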
row,Compound,activity [%] (%-substrate conversion after 20 min incubation)
1,succinyl CoA,117 ± 2%
2,"CC(C(=O)O)C(C)C(=O)O (centres unmarked) [1,2-dimethylsuccinic acid]",110 ± 3%
3,O=CC(=O)O [glyoxylic acid],105 ± 6%
4,O=C(O)CC(=O)O [malonic acid],117 ± 11%
5,O=C(O)CC(Cc1ccccc1)C(=O)O (racemic) [DL-benzylsuccinic acid],123 ± 5%
6,O=C(O)CCC(O)C(=O)O (racemic) [DL-2-hydroglutaric acid],98 ± 8%
7,CSCCC(=O)C(=O)O [4-methylthio-2-oxobutyric acid],99 ± 5%
8,CC[C@H](C)C(=O)C(=O)O [α-ketoisoleucine],102 ± 5%

# Target: T5, R172K IDH2 (Homo sapiens, UniProt P48735, R172K)
# T5 construct: made in house; host or cells: Sf21 insect cells (cell pellets prepared at Evotec)
# T5 sequence (P48735 40-452 R172K): T3 sequence (P48735 40-452) with R133K
# Assay: as above
# Assay type: biochemical
# Conditions: 1.0 mM 2OG and 1.0 mM test compound, 0.03 μM R172K IDH2, 50 μM NADPH
# Outline: as §3
row,Compound,activity [%] (%-substrate conversion after 20 min incubation)
1,succinyl CoA,91 ± 6%
2,"CC(C(=O)O)C(C)C(=O)O (centres unmarked) [1,2-dimethylsuccinic acid]",99 ± 5%
3,O=CC(=O)O [glyoxylic acid],99 ± 6%
4,O=C(O)CC(=O)O [malonic acid],98 ± 4%
5,O=C(O)CC(Cc1ccccc1)C(=O)O (racemic) [DL-benzylsuccinic acid],98 ± 3%
6,O=C(O)CCC(O)C(=O)O (racemic) [DL-2-hydroglutaric acid],95 ± 4%
7,CSCCC(=O)C(=O)O [4-methylthio-2-oxobutyric acid],96 ± 1%
8,O=C(O)C(=O)C(=O)O [ketomalonic acid],85 ± 12%
9,CC[C@H](C)C(=O)C(=O)O [α-ketoisoleucine],94 ± 5%

# Target: T1, R132H IDH1
# Assay: as above
# Assay type: biochemical
# Design: made in house; host or cells: Escherichia coli BL21(DE3) pLyS
# Conditions: […] 2OG and […] test compound, 0.03 μM R132H IDH1, 50 μM NADPH
# Outline: as §3
row,Compound,activity [%] (%-substrate conversion after 20 min incubation)
1,succinyl CoA,73 ± 1%
2,"CC(C(=O)O)C(C)C(=O)O (centres unmarked) [1,2-dimethylsuccinic acid]",100 ± 2%
3,O=CC(=O)O [glyoxylic acid],108 ± 5%
4,O=C(O)CC(=O)O [malonic acid],103 ± 4%
5,O=C(O)CC(Cc1ccccc1)C(=O)O (racemic) [DL-benzylsuccinic acid],93 ± 3%
6,O=C(O)CCC(O)C(=O)O (racemic) [DL-2-hydroglutaric acid],89 ± 5%
7,CSCCC(=O)C(=O)O [4-methylthio-2-oxobutyric acid],97 ± 1%
8,O=C(O)C(=O)C(=O)O [ketomalonic acid],79 ± 1%
9,CC[C@H](C)C(=O)C(=O)O [α-ketoisoleucine],104 ± 2%

# Target: T2, WT IDH1
# Assay: Absorbance assay, WT activity in the presence of equimolar DL-isocitrate (inhibition)
# Assay type: biochemical
# Conditions: […] isocitrate and […] test compound, 75 μM NADP+, 2.0 nM WT IDH1
# Outline: as §3
row,Compound,activity [%] (%-substrate conversion after 20 min incubation)
1,succinyl CoA,100 ± 1%
2,"CC(C(=O)O)C(C)C(=O)O (centres unmarked) [1,2-dimethylsuccinic acid]",103 ± 1%
3,O=CC(=O)O [glyoxylic acid],104 ± 2%
4,O=C(O)CC(=O)O [malonic acid],100 ± 1%
5,O=C(O)CC(Cc1ccccc1)C(=O)O (racemic) [DL-benzylsuccinic acid],103 ± 4%
6,O=C(O)CCC(O)C(=O)O (racemic) [DL-2-hydroglutaric acid],94 ± 2%
7,CSCCC(=O)C(=O)O [4-methylthio-2-oxobutyric acid],102 ± 2%
8,O=C(O)C(=O)C(=O)O [ketomalonic acid],102 ± 4%
9,CC[C@H](C)C(=O)C(=O)O [α-ketoisoleucine],105 ± 4%

# Target: T3, WT IDH2
# Assay: as above
# Assay type: biochemical
# Conditions: […] isocitrate and […] test compound, 75 μM NADP+, 2.0 nM WT IDH2
# Outline: as §3
row,Compound,activity [%] (%-substrate conversion after 20 min incubation)
1,succinyl CoA,99 ± 1%
2,"CC(C(=O)O)C(C)C(=O)O (centres unmarked) [1,2-dimethylsuccinic acid]",99 ± 1%
3,O=CC(=O)O [glyoxylic acid],99 ± 2%
4,O=C(O)CC(=O)O [malonic acid],100 ± 2%
5,O=C(O)CC(Cc1ccccc1)C(=O)O (racemic) [DL-benzylsuccinic acid],101 ± 3%
6,O=C(O)CCC(O)C(=O)O (racemic) [DL-2-hydroglutaric acid],95 ± 3%
7,CSCCC(=O)C(=O)O [4-methylthio-2-oxobutyric acid],98 ± 3%
8,O=C(O)C(=O)C(=O)O [ketomalonic acid],100 ± 2%
9,CC[C@H](C)C(=O)C(=O)O [α-ketoisoleucine],98 ± 3%

# Target: T4, R140Q IDH2
# Assay: Absorbance assay (NADPH consumption), substrate turnover in the absence of 2OG
# Assay type: biochemical
# Conditions: no 2OG; 6.0 mM test compound, 0.03 μM R140Q IDH2, 50 μM NADPH; 2OG = 100
# Procedure: as §1, §2
row,Compound,activity [%] (%-substrate conversion after 20 min incubation)
1,succinyl CoA,< 10%
2,"CC(C(=O)O)C(C)C(=O)O (centres unmarked) [1,2-dimethylsuccinic acid]",< 10%
3,O=CC(=O)O [glyoxylic acid],< 10%
4,O=C(O)CC(=O)O [malonic acid],< 10%
5,O=C(O)CC(Cc1ccccc1)C(=O)O (racemic) [DL-benzylsuccinic acid],< 10%
6,O=C(O)CCC(O)C(=O)O (racemic) [DL-2-hydroglutaric acid],< 10%
7,CSCCC(=O)C(=O)O [4-methylthio-2-oxobutyric acid],< 10%
8,O=C(O)C(=O)C(=O)O [ketomalonic acid],< 10%
9,CC[C@H](C)C(=O)C(=O)O [α-ketoisoleucine],< 10%

# Target: T5, R172K IDH2
# Assay: as above
# Assay type: biochemical
# Conditions: no 2OG; 1.0 mM test compound, 0.03 μM R172K IDH2, 50 μM NADPH; 2OG = 100
# Procedure: as §1, §2
row,Compound,activity [%] (%-substrate conversion after 20 min incubation)
1,succinyl CoA,< 10%
2,"CC(C(=O)O)C(C)C(=O)O (centres unmarked) [1,2-dimethylsuccinic acid]",< 10%
3,O=CC(=O)O [glyoxylic acid],< 10%
4,O=C(O)CC(=O)O [malonic acid],< 10%
5,O=C(O)CC(Cc1ccccc1)C(=O)O (racemic) [DL-benzylsuccinic acid],< 10%
6,O=C(O)CCC(O)C(=O)O (racemic) [DL-2-hydroglutaric acid],< 10%
7,CSCCC(=O)C(=O)O [4-methylthio-2-oxobutyric acid],< 10%
8,O=C(O)C(=O)C(=O)O [ketomalonic acid],< 10%
9,CC[C@H](C)C(=O)C(=O)O [α-ketoisoleucine],< 10%
